Source: paper PMC7366784 (Medical Science Monitor : International Medical Journal of …, 2020)

Legend:
C. trachomatis = conditions: added to the replication phase of developmental cycle; cited from earlier work
[1] = system: MT-S247A (recombinant cHtrA mutant); assay type: in vitro ADME, C. trachomatis serovar D; conditions: AMP 100 μg/mL, mutant 100 μg/mL, 37°C, 30 min
[2] = system: MT-H143A (recombinant cHtrA mutant); assay type: in vitro ADME, C. trachomatis serovar D; conditions: AMP 100 μg/mL, mutant 100 μg/mL, 37°C, 30 min
recombinant cHtrA = assay type: in vitro ADME, C. trachomatis serovar D; conditions: AMP 100 μg/mL, cHtrA 100 μg/mL, 37°C, 30 min; Coomassie blue staining

CC(C)C(NC(=O)[C@@H]1CCCN1C(=O)[C@@H](NC(=O)OC(C)(C)C)C(C)C)P(=O)(Oc1ccccc1)Oc1ccccc1 (stereo partly shown) [JO146]
Effect on C. trachomatis (C. trachomatis): lethal to C. trachomatis

CC[C@H](C)[C@H](NC(=O)[C@H](CCCCN)NC(=O)[C@H](CCC(=O)O)NC(=O)[C@H](CCCCN)NC(=O)[C@H](CO)NC(=O)[C@H](CCCCN)NC(=O)[C@H](CCCNC(=N)N)NC(=O)[C@H](Cc1ccccc1)NC(=O)[C@H](Cc1ccccc1)NC(=O)[C@H](CC(=O)O)NC(=O)CNC(=O)[C@H](CC(C)C)NC(=O)[C@@H](N)CC(C)C)C(=O)NCC(=O)N[C@@H](CCCCN)C(=O)N[C@@H](CCC(=O)O)C(=O)N[C@@H](Cc1ccccc1)C(=O)N[C@@H](CCCCN)C(=O)N[C@@H](CCCNC(=N)N)C(=O)N[C@H](C(=O)N[C@H](C(=O)N[C@@H](CCC(N)=O)C(=O)N[C@@H](CCCNC(=N)N)C(=O)N[C@H](C(=O)N[C@@H](CCCCN)C(=O)N[C@@H](CC(=O)O)C(=O)N[C@@H](Cc1ccccc1)C(=O)N[C@@H](CC(C)C)C(=O)N[C@@H](CCCNC(=N)N)C(=O)N[C@@H](CC(N)=O)C(=O)N[C@@H](CC(C)C)C(=O)N[C@H](C(=O)N1CCC[C@H]1C(=O)N[C@@H](CCCNC(=N)N)C(=O)N[C@H](C(=O)N[C@@H](CCC(=O)O)C(=O)N[C@@H](CO)C(=O)O)[C@@H](C)O)C(C)C)[C@@H](C)CC)C(C)C)[C@@H](C)CC [LL-37]
Degradation of AMP by MT-S247A [1]: unable to degrade LL-37
Degradation of AMP by MT-H143A [2]: unable to degrade LL-37
Degradation of AMP by 100 μg/mL recombinant cHtrA (recombinant cHtrA): degraded all LL-37
